Assays:
[1] = system: Deroceras reticulatum (grey field slug); experiment: Example 1: pot test, treated winter wheat seed with 5 adult slugs per pot, 14 days; format: in vivo
Method in brief: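 Fludioxonil-disinfected winter wheat seed (Kampa, 40 per pot) sown on quartz sand over potting soil with 5 adult slugs per pot; ±15° C., ±90% RH, 12 h light/12 h dark, 4 replicates. Damaged seeds, plants, dead slugs and fecal pellets counted up to day 14; F-tests and Student-tests.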

[2] = system: Winter wheat (Kampa race) seeds; experiment: Seed germination test of treated winter wheat seeds (rolled in paper); format: in vivo; conditions: 3x50 seeds, 6 days at 22° C.
Method in brief: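 Seeds were disinfected with fludioxonil-containing Beret Gold (2 ml per kg seed) and coated with Sepiret® for formulations unsuitable for coating. Germination of 3×50 seeds rolled in paper was scored after 6 days at continuous 22° C. under a 16 hours light regime.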

[3] = 2 ml formulated per kg seed, 2 days after sowing
[4] = 2 ml formulated per kg seed, 3 days after sowing
[5] = 2 ml formulated per kg seed, 7 days after sowing
[6] = 2 ml formulated per kg seed, 10 days after sowing
[7] = 2 ml formulated per kg seed, 14 days after sowing
[8] = 4 ml formulated per kg seed, 2 days after sowing
[9] = 4 ml formulated per kg seed, 3 days after sowing
[10] = 4 ml formulated per kg seed, 7 days after sowing
[11] = 4 ml formulated per kg seed, 10 days after sowing
[12] = 4 ml formulated per kg seed, 14 days after sowing
[13] = 8 ml formulated per kg seed, 2 days after sowing
[14] = 8 ml formulated per kg seed, 3 days after sowing
[15] = 8 ml formulated per kg seed, 7 days after sowing
[16] = 8 ml formulated per kg seed, 10 days after sowing
[17] = 8 ml formulated per kg seed, 14 days after sowing
[18] = 12 ml formulated per kg seed, 2 days after sowing
[19] = 12 ml formulated per kg seed, 3 days after sowing
[20] = 12 ml formulated per kg seed, 7 days after sowing
[21] = 12 ml formulated per kg seed, 10 days after sowing
[22] = 12 ml formulated per kg seed, 14 days after sowing

`O=[N+]([O-])NC1=NCCN1Cc1ccc(Cl)nc1` [imidacloprid] was tested, and the “number of utilizable plants after 14 days” value (“number of utilizable plants” below) ([1]; 2 ml formulated per kg seed) was 2.5, the “percentage of damaged seeds after 14 days” value (“percentage of damaged seeds” below) ([1]; 2 ml formulated per kg seed) was 86% and the “Mean number of damaged seeds per pot” value [1, 3] was 2.8. The “Mean number of dead slugs per pot” value [1, 3] was 0, the “Mean number fecal pellets per pot” value [1, 4] was 33 and the “Mean number of damaged seeds per pot” value [1, 4] was 10.3. For the same compound, the “Mean number of dead slugs per pot” value [1, 4] was 0, the “Mean number of plants present per pot” value [1, 4] was 3.8 and the “Mean number fecal pellets per pot” value [1, 5] was 118. For the same compound, the “Mean number of damaged seeds per pot” value [1, 5] was 33.0, the “Mean number of dead slugs per pot” value [1, 5] was 0 and the “Mean number of plants present per pot” value [1, 5] was 2.8. The “Mean number fecal pellets per pot” value [1, 6] was 109, the “Mean number of damaged seeds per pot” value [1, 6] was 33.5 and the “Mean number of dead slugs per pot” value [1, 6] was 0.3. For the same compound, the “Mean number of plants present per pot” value [1, 6] was 4.5, the “Mean number fecal pellets per pot” value [1, 7] was 116 and the “Mean number of damaged seeds per pot” value [1, 7] was 34.3. The “Mean number of dead slugs per pot” value [1, 7] was 0.5, the “Mean number of plants present per pot” value [1, 7] was 3.3 and the “number of utilizable plants” value ([1]; 4 ml formulated per kg seed) was 0.8. The “percentage of damaged seeds” value ([1]; 4 ml formulated per kg seed) was 81%, the “Mean number of damaged seeds per pot” value [1, 8] was 1.0 and the “Mean number of dead slugs per pot” value [1, 8] was 0. For the same compound, the “Mean number fecal pellets per pot” value [1, 9] was 21, the “Mean number of damaged seeds per pot” value [1, 9] was 7.3 and the “Mean number of dead slugs per pot” value [1, 9] was 0.3. For the same compound, the “Mean number of plants present per pot” value [1, 9] was 2.3, the “Mean number fecal pellets per pot” value [1, 10] was 108 and the “Mean number of damaged seeds per pot” value [1, 10] was 32.8. For the same compound, the “Mean number of dead slugs per pot” value [1, 10] was 0.3, the “Mean number of plants present per pot” value [1, 10] was 1.3 and the “Mean number fecal pellets per pot” value [1, 11] was 118. For the same compound, the “Mean number of damaged seeds per pot” value [1, 11] was 31.5, the “Mean number of dead slugs per pot” value [1, 11] was 0.3 and the “Mean number of plants present per pot” value [1, 11] was 4.0. The “Mean number fecal pellets per pot” value [1, 12] was 126, the “Mean number of damaged seeds per pot” value [1, 12] was 32.3 and the “Mean number of dead slugs per pot” value [1, 12] was 0.3. For the same compound, the “Mean number of plants present per pot” value [1, 12] was 3.5, the “number of utilizable plants” value ([1]; 8 ml formulated per kg seed) was 7.3 and the “percentage of damaged seeds” value ([1]; 8 ml formulated per kg seed) was 59%. For the same compound, the “Mean number of damaged seeds per pot” value [1, 13] was 1.3, the “Mean number of dead slugs per pot” value [1, 13] was 0 and the “Mean number fecal pellets per pot” value [1, 14] was 11. For the same compound, the “Mean number of damaged seeds per pot” value [1, 14] was 4.5, the “Mean number of dead slugs per pot” value [1, 14] was 0 and the “Mean number of plants present per pot” value [1, 14] was 13.8. For the same compound, the “Mean number fecal pellets per pot” value [1, 15] was 48, the “Mean number of damaged seeds per pot” value [1, 15] was 23.8 and the “Mean number of dead slugs per pot” value [1, 15] was 0. For the same compound, the “Mean number of plants present per pot” value [1, 15] was 9.0, the “Mean number fecal pellets per pot” value [1, 16] was 65 and the “Mean number of damaged seeds per pot” value [1, 16] was 23.5. The “Mean number of dead slugs per pot” value [1, 16] was 0.3, the “Mean number of plants present per pot” value [1, 16] was 9.5 and the “Mean number fecal pellets per pot” value [1, 17] was 75. The “Mean number of damaged seeds per pot” value [1, 17] was 23.8, the “Mean number of dead slugs per pot” value [1, 17] was 0.5 and the “Mean number of plants present per pot” value [1, 17] was 10.5. For the same compound, the “number of utilizable plants” value ([1]; 12 ml formulated per kg seed) was 14.3, the “percentage of damaged seeds” value ([1]; 12 ml formulated per kg seed) was 22% and the “Mean number of damaged seeds per pot” value [1, 18] was 0.0. For the same compound, the “Mean number of dead slugs per pot” value [1, 18] was 0, the “Mean number fecal pellets per pot” value [1, 19] was 9 and the “Mean number of damaged seeds per pot” value [1, 19] was 4.3. For the same compound, the “Mean number of dead slugs per pot” value [1, 19] was 1.5, the “Mean number of plants present per pot” value [1, 19] was 11.8 and the “Mean number fecal pellets per pot” value [1, 20] was 26. For the same compound, the “Mean number of damaged seeds per pot” value [1, 20] was 11.5, the “Mean number of dead slugs per pot” value [1, 20] was 1.5 and the “Mean number of plants present per pot” value [1, 20] was 16.3. The “Mean number fecal pellets per pot” value [1, 21] was 35, the “Mean number of damaged seeds per pot” value [1, 21] was 7.8 and the “Mean number of dead slugs per pot” value [1, 21] was 1.5. For the same compound, the “Mean number of plants present per pot” value [1, 21] was 19.0, the “Mean number fecal pellets per pot” value [1, 22] was 38 and the “Mean number of damaged seeds per pot” value [1, 22] was 8.8. The “Mean number of dead slugs per pot” value [1, 22] was 1.5, the “Mean number of plants present per pot” value [1, 22] was 20 and the “damaged seeds relative to untreated seed” value ([1]; Example 1, 2 ml/kg) was “no controlling effect”. The “damaged seeds relative to untreated seed” value ([1]; Example 1, 4 ml/kg) was “controlling effect only after 2 and 3 days”, the “damaged seeds relative to untreated seed” value ([1]; Example 1, 8 ml/kg, after 3, 7 and 14 days) was “significant controlling effect” and the “damaged seeds relative to the untreated pots” value ([1]; Example 1, 12 ml per kg of seed, at each observation) was “significantly less damaged seeds”. The “fecal pellets relative to the untreated seed” value ([1]; Example 1, 12 ml per kg of seed, each observation) was “significantly less fecal pellets”, the “dead slugs relative to the untreated seed” value ([1]; Example 1, 12 ml/kg, 3 and 7 days after the start) was “significantly more dead slugs” and the “plants present relative to the untreated seed” value ([1]; Example 1, 12 ml/kg, at each observation) was “significantly more plants present”. For the same compound, the “slug controlling effect (conclusion)” value ([1]; Example 1, dosage of 12 ml per kg of seed) was “good slug controlling agent”, the Percentage germinated ([2]; 2 ml formulated per kg seed) was 78% and the Percentage germinated ([2]; 4 ml formulated per kg seed) was 89%. The Percentage germinated ([2]; 8 ml formulated per kg seed) was 71% and the Percentage germinated ([2]; 12 ml formulated per kg seed) was 77%.

Reference: US20070167492A1, “Molluscicidal agents” (priority 2003, published 2007)
